Article PMC4116505, “HER2-signaling pathway, JNK and ERKs kinases, and cancer stem-like cells are targets of Bozepinib” (Oncotarget, 2014)

Key:
HER2 [1] = molecular target: T1, HER2 (Homo sapiens, UniProt P04626); experiment: 36-kinase panel, residual activity at […]; p-HER2 loss in SKBR-3 cells by western blot; format: biochemical
T1 construct: gene ERBB2

VEGFR-3 [2] = molecular target: T2, VEGFR-3 (Homo sapiens, UniProt P35916); experiment: 36-kinase panel, residual activity at […]; format: biochemical
T2 construct: gene FLT4
T2 sequence (P35916 25-1363): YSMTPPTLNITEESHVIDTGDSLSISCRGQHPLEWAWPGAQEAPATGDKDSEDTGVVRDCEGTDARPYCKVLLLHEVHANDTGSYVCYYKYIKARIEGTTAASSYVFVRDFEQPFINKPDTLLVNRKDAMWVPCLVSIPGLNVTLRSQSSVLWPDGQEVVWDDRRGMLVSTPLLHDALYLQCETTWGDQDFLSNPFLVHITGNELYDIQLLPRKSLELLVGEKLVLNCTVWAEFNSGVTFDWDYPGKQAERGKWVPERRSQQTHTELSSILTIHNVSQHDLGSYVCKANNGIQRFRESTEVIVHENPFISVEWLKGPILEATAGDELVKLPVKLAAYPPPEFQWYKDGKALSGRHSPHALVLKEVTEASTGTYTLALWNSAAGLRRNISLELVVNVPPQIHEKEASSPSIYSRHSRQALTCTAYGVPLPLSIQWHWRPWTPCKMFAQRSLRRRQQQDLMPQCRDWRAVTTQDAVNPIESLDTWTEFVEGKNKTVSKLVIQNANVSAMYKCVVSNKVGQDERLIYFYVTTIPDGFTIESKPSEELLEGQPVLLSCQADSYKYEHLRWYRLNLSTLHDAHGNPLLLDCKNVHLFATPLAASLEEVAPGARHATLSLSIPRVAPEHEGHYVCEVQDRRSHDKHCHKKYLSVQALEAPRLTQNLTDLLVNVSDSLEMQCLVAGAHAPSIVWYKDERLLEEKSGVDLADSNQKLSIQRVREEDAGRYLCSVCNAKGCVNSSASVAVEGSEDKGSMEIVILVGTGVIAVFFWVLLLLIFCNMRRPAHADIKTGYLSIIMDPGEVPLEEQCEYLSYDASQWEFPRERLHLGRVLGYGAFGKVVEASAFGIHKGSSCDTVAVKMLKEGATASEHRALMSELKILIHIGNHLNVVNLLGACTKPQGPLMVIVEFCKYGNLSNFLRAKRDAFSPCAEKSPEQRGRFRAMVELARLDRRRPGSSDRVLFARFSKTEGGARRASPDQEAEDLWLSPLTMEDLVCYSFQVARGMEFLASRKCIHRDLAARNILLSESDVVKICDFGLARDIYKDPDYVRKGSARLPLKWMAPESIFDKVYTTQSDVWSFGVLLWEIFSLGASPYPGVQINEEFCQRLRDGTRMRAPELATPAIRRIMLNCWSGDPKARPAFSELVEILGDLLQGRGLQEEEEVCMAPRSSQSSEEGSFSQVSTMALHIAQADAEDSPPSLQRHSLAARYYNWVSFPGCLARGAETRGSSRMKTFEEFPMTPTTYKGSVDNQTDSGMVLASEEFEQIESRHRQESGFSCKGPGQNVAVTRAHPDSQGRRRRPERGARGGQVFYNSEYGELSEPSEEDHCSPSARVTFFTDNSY

VEGFR-2 [3] = molecular target: T3, VEGFR-2 (Homo sapiens, UniProt P35968); experiment: 36-kinase panel, residual activity at […]; format: biochemical
T3 construct: gene KDR
T3 sequence (P35968 20-1356): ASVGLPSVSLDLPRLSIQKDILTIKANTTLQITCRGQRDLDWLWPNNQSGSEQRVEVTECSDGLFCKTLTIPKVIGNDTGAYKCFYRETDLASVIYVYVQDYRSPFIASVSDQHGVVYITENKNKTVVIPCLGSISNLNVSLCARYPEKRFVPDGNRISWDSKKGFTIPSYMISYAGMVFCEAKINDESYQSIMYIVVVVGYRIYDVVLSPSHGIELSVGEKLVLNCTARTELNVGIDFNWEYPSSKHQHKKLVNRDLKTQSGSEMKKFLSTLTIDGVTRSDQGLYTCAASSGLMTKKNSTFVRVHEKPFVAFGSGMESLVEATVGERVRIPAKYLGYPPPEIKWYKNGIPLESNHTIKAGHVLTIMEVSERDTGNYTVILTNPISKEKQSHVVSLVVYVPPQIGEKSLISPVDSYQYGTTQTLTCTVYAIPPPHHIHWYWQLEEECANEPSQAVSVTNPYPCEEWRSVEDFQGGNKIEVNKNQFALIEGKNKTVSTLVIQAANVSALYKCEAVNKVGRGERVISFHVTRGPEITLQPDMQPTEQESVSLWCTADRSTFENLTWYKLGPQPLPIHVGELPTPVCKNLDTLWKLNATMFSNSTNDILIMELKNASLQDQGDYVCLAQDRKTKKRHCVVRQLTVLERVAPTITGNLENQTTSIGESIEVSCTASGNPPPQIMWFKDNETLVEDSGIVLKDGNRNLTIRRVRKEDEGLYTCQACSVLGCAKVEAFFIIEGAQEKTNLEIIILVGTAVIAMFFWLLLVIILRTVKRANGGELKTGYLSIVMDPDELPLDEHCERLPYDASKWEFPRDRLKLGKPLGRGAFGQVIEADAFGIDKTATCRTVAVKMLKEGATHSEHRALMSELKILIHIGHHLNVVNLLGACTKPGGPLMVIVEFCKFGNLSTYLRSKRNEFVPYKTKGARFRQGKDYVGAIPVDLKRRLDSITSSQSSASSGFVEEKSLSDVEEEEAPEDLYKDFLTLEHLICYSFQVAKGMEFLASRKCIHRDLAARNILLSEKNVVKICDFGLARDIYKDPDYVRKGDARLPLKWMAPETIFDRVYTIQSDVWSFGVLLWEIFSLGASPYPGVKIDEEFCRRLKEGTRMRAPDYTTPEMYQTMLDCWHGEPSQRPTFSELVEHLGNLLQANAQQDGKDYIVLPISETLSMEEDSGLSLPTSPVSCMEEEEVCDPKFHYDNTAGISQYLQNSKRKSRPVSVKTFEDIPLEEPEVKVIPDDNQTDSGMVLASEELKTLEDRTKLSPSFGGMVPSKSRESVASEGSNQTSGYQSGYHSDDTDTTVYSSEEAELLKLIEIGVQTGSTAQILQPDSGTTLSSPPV

IKK-beta = molecular target: T4, IKK-beta (Homo sapiens, UniProt O14920); experiment: biochemical; design: protein kinase panel (36 kinases), residual activity at two concentrations, singlicate
T4 construct: gene IKBKB
Protocol: (§1) The kinase inhibition profile of Bozepinib was determined using a panel of 36 protein kinases (Supplementary Table S1). Residual activity values were measured by testing each compound at two concentrations (5×10^−5 M and 5×10^−6 M) in singlicate for each kinase assay. Detailed methods for kinome analyses are provided in Supplementary Materials and Methods. […] Each experiment was repeated three times. Kinase Inhibition Assays Bozepinib was dissolved in volumes of 100% DMSO to reach stock concentrations of 5×10^-3 M/100% DMSO and 5×10^-4 M/100% DMSO, respectively. In the process, the 5×10^-3 M/100% DMSO and 5×10^-4 M/100% DMSO solutions were diluted with water to 5×10^-4 M/10% DMSO and 5×10^-5 M/10% DMSO in a 96 well microtiter plate directly before use. For every kinase, 5 μl from each of the 5×10^-4 M/10% DMSO and 5×10^-5 M/10% DMSO compound solutions were transferred into the assay plates. The To study the effect of Bozepinib on cancer proliferation pathways, we carried out an ex vivo multikinase screening assay (n=36) using 5μM and 50μM (Supplementary Table S3). […] In order to analyze whether Bozepinib inhibits the HER2 signaling pathways in breast cancer cells, we treated the HER2 positive SKBR-3 cell line with 5 μM of Bozepinib and we analyzed the expression and activation of proteins involved in HER2 signaling at different times post-treatment by western blot analysis (Fig. 1A). […] Moreover, we also detected both the inhibition of ERKs and JNK phosphorylation in MCF-7 and MDA-MB 468 breast cancer cell lines, that was more notable in MCF-7 cells at 4 hours post-treatment and in MDA-MB 468 cell line after 8 hours post-treatment (Fig. 1B and 1C).

JAK3 = JAK3 (Homo sapiens, UniProt P52333); experiment: biochemical; design: protein kinase panel (36 kinases), residual activity at two concentrations, singlicate
Protocol: as §1

JNK3 = molecular target: T5, JNK3 (Homo sapiens, UniProt P53779); experiment: biochemical; design: protein kinase panel (36 kinases), residual activity at two concentrations, singlicate
T5 construct: gene MAPK10
Protocol: as §1

CDK9/CycT = CDK9/CycT (Homo sapiens, UniProt P50750); experiment: biochemical; design: protein kinase panel (36 kinases), residual activity at two concentrations, singlicate
Protocol: as §1

STK33 = STK33 (Homo sapiens, UniProt Q9BYT3); experiment: biochemical; design: protein kinase panel (36 kinases), residual activity at two concentrations, singlicate
Protocol: as §1

AKT2 [4] = molecular target: T6, AKT2 (Homo sapiens, UniProt P31751); experiment: biochemical; design: protein kinase panel (36 kinases), residual activity at two concentrations, singlicate
T6 sequence (P31751 whole entry): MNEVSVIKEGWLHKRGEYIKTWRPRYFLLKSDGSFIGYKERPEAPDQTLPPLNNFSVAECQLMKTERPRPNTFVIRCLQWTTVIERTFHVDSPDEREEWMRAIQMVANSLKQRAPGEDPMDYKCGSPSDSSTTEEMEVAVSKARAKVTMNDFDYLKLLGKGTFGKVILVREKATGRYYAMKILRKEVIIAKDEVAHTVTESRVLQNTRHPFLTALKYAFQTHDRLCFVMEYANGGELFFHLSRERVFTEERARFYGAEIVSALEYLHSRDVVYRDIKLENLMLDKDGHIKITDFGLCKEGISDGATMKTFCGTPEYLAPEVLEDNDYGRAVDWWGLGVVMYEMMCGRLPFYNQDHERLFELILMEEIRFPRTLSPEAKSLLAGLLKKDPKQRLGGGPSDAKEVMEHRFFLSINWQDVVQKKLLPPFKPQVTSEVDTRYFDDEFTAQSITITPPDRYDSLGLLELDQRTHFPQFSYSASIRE
Protocol: as §1

AKT3 = AKT3 (Homo sapiens, UniProt Q9Y243); experiment: biochemical; design: protein kinase panel (36 kinases), residual activity at two concentrations, singlicate
Protocol: as §1

CDK6/CycD1 = CDK6/CycD1 (Homo sapiens, UniProt Q00534); experiment: biochemical; design: protein kinase panel (36 kinases), residual activity at two concentrations, singlicate
Protocol: as §1

CDK7/CycH/MAT1 = CDK7/CycH/MAT1 (Homo sapiens, UniProt P50613); experiment: biochemical; design: protein kinase panel (36 kinases), residual activity at two concentrations, singlicate
Protocol: as §1

IKK-epsilon = molecular target: T7, IKK-epsilon (Homo sapiens, UniProt Q14164); experiment: biochemical; design: protein kinase panel (36 kinases), residual activity at two concentrations, singlicate
T7 construct: gene IKBKE
Protocol: as §1

PDK1 = molecular target: T8, PDK1 (Homo sapiens, UniProt O15530); experiment: biochemical; design: protein kinase panel (36 kinases), residual activity at two concentrations, singlicate
T8 construct: gene PDPK1
Protocol: as §1

RET = RET (Homo sapiens, UniProt P07949); experiment: biochemical; design: protein kinase panel (36 kinases), residual activity at two concentrations, singlicate
Protocol: as §1

PKC-alpha = molecular target: T9, PKC-alpha (Homo sapiens, UniProt P17252); experiment: biochemical; design: protein kinase panel (36 kinases), residual activity at two concentrations, singlicate
T9 construct: gene PRKCA
Protocol: as §1

ERK2 = molecular target: T10, ERK2 (Homo sapiens, UniProt P28482); experiment: biochemical; design: protein kinase panel (36 kinases), residual activity at two concentrations, singlicate
T10 construct: gene MAPK1
Protocol: as §1

HER2 [5] = molecular target: T1, HER2; experiment: biochemical; design: protein kinase panel (36 kinases), residual activity at two concentrations, singlicate
Protocol: as §1

VEGFR-1 [6] = molecular target: T11, VEGFR-1 (Homo sapiens, UniProt P17948); experiment: biochemical; design: protein kinase panel (36 kinases), residual activity at two concentrations, singlicate
T11 construct: gene FLT1
T11 sequence (P17948 27-1338): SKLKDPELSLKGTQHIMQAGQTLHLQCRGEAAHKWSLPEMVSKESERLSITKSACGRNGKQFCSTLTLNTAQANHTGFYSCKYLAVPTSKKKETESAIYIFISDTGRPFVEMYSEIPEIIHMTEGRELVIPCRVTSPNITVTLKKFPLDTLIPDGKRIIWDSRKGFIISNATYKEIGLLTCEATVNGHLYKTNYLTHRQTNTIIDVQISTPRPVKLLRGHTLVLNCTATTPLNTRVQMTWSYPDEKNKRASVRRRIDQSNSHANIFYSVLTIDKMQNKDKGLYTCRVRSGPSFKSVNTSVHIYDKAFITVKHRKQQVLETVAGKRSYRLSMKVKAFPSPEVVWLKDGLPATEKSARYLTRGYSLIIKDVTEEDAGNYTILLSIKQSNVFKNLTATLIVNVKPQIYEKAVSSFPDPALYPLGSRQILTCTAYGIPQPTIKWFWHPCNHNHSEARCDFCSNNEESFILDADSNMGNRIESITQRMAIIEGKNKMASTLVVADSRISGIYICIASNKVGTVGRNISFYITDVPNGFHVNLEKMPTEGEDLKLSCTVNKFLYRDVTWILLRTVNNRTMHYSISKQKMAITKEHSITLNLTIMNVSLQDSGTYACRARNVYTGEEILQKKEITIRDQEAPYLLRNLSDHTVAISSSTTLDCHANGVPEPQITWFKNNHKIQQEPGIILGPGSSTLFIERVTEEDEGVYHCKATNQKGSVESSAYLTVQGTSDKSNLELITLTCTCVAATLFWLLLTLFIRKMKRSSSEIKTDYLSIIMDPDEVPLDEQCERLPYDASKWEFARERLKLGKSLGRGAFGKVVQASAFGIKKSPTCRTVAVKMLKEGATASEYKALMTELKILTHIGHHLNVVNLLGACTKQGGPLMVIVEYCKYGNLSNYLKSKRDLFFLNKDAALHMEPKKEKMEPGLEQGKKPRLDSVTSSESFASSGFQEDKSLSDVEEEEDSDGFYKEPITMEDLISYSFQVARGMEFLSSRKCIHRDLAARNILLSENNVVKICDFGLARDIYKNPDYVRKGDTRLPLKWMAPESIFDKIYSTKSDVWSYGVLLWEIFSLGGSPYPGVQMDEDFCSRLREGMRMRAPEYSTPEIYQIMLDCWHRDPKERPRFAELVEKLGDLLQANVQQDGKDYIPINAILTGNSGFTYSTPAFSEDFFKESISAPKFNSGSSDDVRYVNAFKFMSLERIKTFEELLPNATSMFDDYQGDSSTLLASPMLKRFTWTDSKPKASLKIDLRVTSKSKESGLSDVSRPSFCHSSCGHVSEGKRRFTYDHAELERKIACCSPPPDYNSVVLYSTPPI
Protocol: as §1

STK23 = molecular target: T12, STK23 (Homo sapiens, UniProt Q9UPE1); experiment: biochemical; design: protein kinase panel (36 kinases), residual activity at two concentrations, singlicate
T12 construct: gene SRPK3
Protocol: as §1

CDK8/CycC = CDK8/CycC (Homo sapiens, UniProt P49336); experiment: biochemical; design: protein kinase panel (36 kinases), residual activity at two concentrations, singlicate
Protocol: as §1

JNK1 = molecular target: T13, JNK1 (Homo sapiens, UniProt P45983); experiment: biochemical; design: protein kinase panel (36 kinases), residual activity at two concentrations, singlicate
T13 construct: gene MAPK8
Protocol: as §1

JNK2 = molecular target: T14, JNK2 (Homo sapiens, UniProt P45984); experiment: biochemical; design: protein kinase panel (36 kinases), residual activity at two concentrations, singlicate
T14 construct: gene MAPK9
Protocol: as §1

EGFR = EGFR (Homo sapiens, UniProt P00533); experiment: biochemical; design: protein kinase panel (36 kinases), residual activity at two concentrations, singlicate
Protocol: as §1

AKT1 = AKT1 (Homo sapiens, UniProt P31749); experiment: biochemical; design: protein kinase panel (36 kinases), residual activity at two concentrations, singlicate
Protocol: as §1

IKK- alpha = molecular target: T15, IKK- alpha (Homo sapiens, UniProt O15111); experiment: biochemical; design: protein kinase panel (36 kinases), residual activity at two concentrations, singlicate
T15 construct: gene CHUK
Protocol: as §1

P38-alpha = molecular target: T16, P38-alpha (Homo sapiens, UniProt Q16539); experiment: biochemical; design: protein kinase panel (36 kinases), residual activity at two concentrations, singlicate
T16 construct: gene MAPK14
T16 sequence (Q16539 whole entry): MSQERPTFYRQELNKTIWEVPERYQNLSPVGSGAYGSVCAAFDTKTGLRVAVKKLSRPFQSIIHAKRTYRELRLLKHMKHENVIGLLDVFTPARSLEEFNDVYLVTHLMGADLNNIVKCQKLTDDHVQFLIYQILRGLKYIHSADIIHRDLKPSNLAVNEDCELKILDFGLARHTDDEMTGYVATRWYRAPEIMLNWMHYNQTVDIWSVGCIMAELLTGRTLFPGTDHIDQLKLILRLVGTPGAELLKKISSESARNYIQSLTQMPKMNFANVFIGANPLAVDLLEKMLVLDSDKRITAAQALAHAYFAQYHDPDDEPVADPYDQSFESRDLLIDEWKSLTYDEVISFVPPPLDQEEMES
Protocol: as §1

VEGFR-2 [7] = molecular target: T3, VEGFR-2; experiment: biochemical; design: protein kinase panel (36 kinases), residual activity at two concentrations, singlicate
Protocol: as §1

VEGFR-3 [8] = molecular target: T2, VEGFR-3; experiment: biochemical; design: protein kinase panel (36 kinases), residual activity at two concentrations, singlicate
Protocol: as §1

AKT2 [9] = molecular target: T6, AKT2; experiment: 36-kinase panel, residual activity at […]; format: biochemical
VEGFR-1 [10] = molecular target: T11, VEGFR-1; experiment: 36-kinase panel, residual activity at […]; format: biochemical
[11] = read-out: Bozepinib 5 µM, residual activity %
[12] = read-out: Bozepinib 50 µM, residual activity %

SMILES: O=[N+]([O-])c1ccc(S(=O)(=O)N2CC(n3cnc4c(Cl)nc(Cl)nc43)OCc3ccccc32)cc1 (racemic) [Bozepinib, (RS)-2,6-dichloro-9-[1-(p-nitrobenzenesulfonyl)-1,2,3,5-tetrahydro-4,1-benzoxazepin-3-yl]-9H-purine]
- 36-kinase panel, residual activity at 5 and 50 μM; p-HER2 loss in SKBR-3 cells b (HER2 [1]): HER2, AKT2 and VEGF receptors were considerably inhibited in the screening (Supplementary Table S3)
- 36-kinase panel, residual activity at 5 and 50 μM (VEGFR-3 [2]): showed inhibitory effects against VEGFR-1, VEGFR-2 and VEGFR-3 in the kinome assay
- 36-kinase panel, residual activity at 5 and 50 μM (VEGFR-2 [3]): showed inhibitory effects against VEGFR-1, VEGFR-2 and VEGFR-3 in the kinome assay
- remaining activity at 5 µM (IKK-beta; [11]): 113%
- remaining activity at 50 µM (IKK-beta; [12]): 78%
- remaining activity at 5 µM (JAK3; [11]): 94%
- remaining activity at 50 µM (JAK3; [12]): 43%
- remaining activity at 5 µM (JNK3; [11]): 81%
- remaining activity at 50 µM (JNK3; [12]): 43%
- remaining activity at 5 µM (CDK9/CycT; [11]): 102%
- remaining activity at 50 µM (CDK9/CycT; [12]): 69%
- remaining activity at 5 µM (STK33; [11]): 102%
- remaining activity at 50 µM (STK33; [12]): 72%
- remaining activity at 5 µM (AKT2 [4]; [11]): 100%
- remaining activity at 50 µM (AKT2 [4]; [12]): 43%
- remaining activity at 5 µM (AKT3; [11]): 98%
- remaining activity at 50 µM (AKT3; [12]): 88%
- remaining activity at 5 µM (CDK6/CycD1; [11]): 95%
- remaining activity at 50 µM (CDK6/CycD1; [12]): 64%
- remaining activity at 5 µM (CDK7/CycH/MAT1; [11]): 96%
- remaining activity at 50 µM (CDK7/CycH/MAT1; [12]): 69%
- remaining activity at 5 µM (IKK-epsilon; [11]): 113%
- remaining activity at 50 µM (IKK-epsilon; [12]): 71%
- remaining activity at 5 µM (PDK1; [11]): 41%
- remaining activity at 50 µM (PDK1; [12]): 27%
- remaining activity at 5 µM (RET; [11]): 79%
- remaining activity at 50 µM (RET; [12]): 14%
- remaining activity at 5 µM (PKC-alpha; [11]): 86%
- remaining activity at 50 µM (PKC-alpha; [12]): 24%
- remaining activity at 5 µM (ERK2; [11]): 104%
- remaining activity at 50 µM (ERK2; [12]): 50%
- remaining activity at 5 µM (HER2 [5]; [11]): 101%
- remaining activity at 50 µM (HER2 [5]; [12]): 25%
- remaining activity at 5 µM (VEGFR-1 [6]; [11]): 91%
- remaining activity at 50 µM (VEGFR-1 [6]; [12]): 18%
- remaining activity at 5 µM (STK23; [11]): 95%
- remaining activity at 50 µM (STK23; [12]): 89%
- remaining activity at 5 µM (CDK8/CycC; [11]): 109%
- remaining activity at 50 µM (CDK8/CycC; [12]): 72%
- remaining activity at 5 µM (JNK1; [11]): 45%
- remaining activity at 50 µM (JNK1; [12]): 29%
- remaining activity at 5 µM (JNK2; [11]): 77%
- remaining activity at 50 µM (JNK2; [12]): 37%
- remaining activity at 5 µM (EGFR; [11]): 84%
- remaining activity at 50 µM (EGFR; [12]): 17%
- remaining activity at 5 µM (AKT1; [11]): 96%
- remaining activity at 50 µM (AKT1; [12]): 78%
- remaining activity at 5 µM (IKK- alpha; [11]): 104%
- remaining activity at 50 µM (IKK- alpha; [12]): 51%
- remaining activity at 5 µM (P38-alpha; [11]): 115%
- remaining activity at 50 µM (P38-alpha; [12]): 57%
- remaining activity at 5 µM (VEGFR-2 [7]; [11]): 82%
- remaining activity at 50 µM (VEGFR-2 [7]; [12]): 13%
- remaining activity at 5 µM (VEGFR-3 [8]; [11]): 84%
- remaining activity at 50 µM (VEGFR-3 [8]; [12]): 13%
- 36-kinase panel, residual activity at 5 and 50 μM (AKT2 [9]): HER2, AKT2 and VEGF receptors were considerably inhibited in the screening (Supplementary Table S3)
- 36-kinase panel, residual activity at 5 and 50 μM (VEGFR-1 [10]): showed inhibitory effects against VEGFR-1, VEGFR-2 and VEGFR-3 in the kinome assay
